Publication PMC10115881, “Disrupting the α-synuclein-ESCRT interaction with a peptide inhibitor mitigates neurodegeneration in preclinical models of Parkinson’s disease” (Nature Communications, 2023)

Key:
Type in all cases: cell-based, human
[1] = test system: LAMP1 in iPSC-derived dopaminergic neurons; assay: LAMP1 fluorescence in iPSC-derived dopaminergic neurons; settings: A53T a-syn iPSC-derived dopaminergic neurons
Protocol: (§1) A53T a-syn iCell Dopa neurons (catalog #R1109) and isogenic control iCell Dopa neurons (catalog #R1088) were purchased from Fujifilm Cellular Dynamics (Madison, WI, USA) and cultured as per the manufacturer’s instructions. Briefly, cells were plated in complete maintenance medium provided by the manufacturer on poly-L-ornithine/laminin coated μ plates (ibidi). Cells recovered from thawing for 24 h and then were transduced with AAV-Scramble1.3-RFP or AAV-PDpep1.3-RFP at MOI of 3000 for 48 h at which time media was completely changed. Cells were fixed using 4% PFA at 7 days post-plating.
(§2) Confocal images of immunofluorescent staining were acquired with a Zeiss LSM880 confocal microscope equipped with 405, 488, 555, and 639 nm laser lines. All images were taken within the linear range at constant gain and pinhole settings at optimal resolution settings determined by the software. […]
(§3) Confocal images of primary cortical neurons, iPSC-derived dopaminergic neurons, and LAMP1 staining within the SN were processed using Imaris software (Oxford instruments). […] Mean pixel intensity per GFP^+ cell (for experiments using GFP-tagged peptides) or RFP^+ cell (for experiments using RFP-tagged peptides) was calculated for a-syn or LAMP1 signal using the software’s surfaces module. […]

[2] = test system: A53T a-syn expressing HEK293 cells; assay: Cell viability with CHMP2B or VPS4 shRNA knockdown, A53T a-syn cells; design: Knockdown effect on cell viability: scale not given here
From the text: Fig. 1 Proteomic screens and in vitro validation of hits. A Schematic of the experimental design including proteomic screens, identification and validation of hits, target deconvolution, and evaluation in cell and animal models (created using Servier Medical Art at https://smart.servier.com/). For the cytotoxicity screen, we employed our peptide library to identify peptides that rescue cytotoxicity induced by a-syn overexpression and proteostatic stress (due to MG132 administration). To screen our library for peptides that inhibit a-syn oligomers, we used FACS with a split YFP-a-syn system (cells co-expressing V1S and SV2). B Validation of cell viability effect of peptides in A53T and WT a-syn expressing cells under proteostatic stress as well as controls. MG132 was used at a concentration of 10 μM. Experiments were done in triplicate. Data represent means ± s.d. (unpaired two-tailed t-tests; A53T PDpep1, P = 0.0051; A53T PDpep1.1, P = 0.0002; A53T PDpep1.2, P = 0.0035; A53T PDpep1.3, P < 0.0001; WT a-syn PDpep1.3, P = 0.0008; n = 3). C WT a-syn oligomers as measured by luciferase activity. […] Experiments were done in triplicate. Data represent means ± s.d. (unpaired two-tailed t-tests; PDpep1, P = 0.0008; PDpep1.1, PDpep1.2, PDpep1.3, P < 0.0001; n = 3). D Co-immunoprecipitation experiment with Flag-CHMP2B and GFP-peptides (n = 3). […] E Fluorescence polarization (FP) binding assay of a FITC-labeled PDpep1.3 peptide against CHMP2B. Error bars represent ± s.d. of the fit (n = 5). F Knockdown of CHMP2B or VPS4 in A53T a-syn expressing cells under proteostatic stress. Cell viabilities were measured with cells stably expressing different shRNAs and transfected with Scramble or PDpep1.3 peptide. Experiments were done in triplicate. Data represent means ± s.d. (unpaired two-tailed t-tests; PDpep1.3, P = 0.0005; n = 3). **P < 0.01; ***P < 0.001; ****P < 0.0001. Source data are provided as a Source Data file.
Cells were trypsinized from subconfluent cultures as described earlier, suspended in culture media, and then seeded into triplicate wells of a 96-well plate (100 µl/well) at a density of 1.5 × 10^4 cells per well with standard culture conditions of 5% CO2 at 37 °C. Cells were infected with lentivirus expressing peptide at a MOI of 5 for 72 h or transfected with plasmid for 72 h. Cell Titer-Glo reagent was added to each well (30 µL), according to the manufacturer’s protocol and […].

[3] = test system: a-syn in iPSC-derived dopaminergic neurons; assay: a-syn fluorescence in iPSC-derived dopaminergic neurons; settings: A53T a-syn iPSC-derived dopaminergic neurons
Protocol: as §1, §2, §3

For DEEIERQLKALG [PDpep1.3], the “Effect on LAMP1 levels, iPSC neurons” value [1] was “LAMP1 levels to those of isogenic controls”, the “Knockdown effect on cell viability” value ([2]; CHMP2B shRNA, replicate 1) was 1.187 and the “Knockdown effect on cell viability” value ([2]; CHMP2B shRNA, replicate 2) was 1.181. The “Knockdown effect on cell viability” value ([2]; CHMP2B shRNA, replicate 3) was 1.121, the “Knockdown effect on cell viability” value ([2]; No shRNA, replicate 1) was 1.473 and the “Knockdown effect on cell viability” value ([2]; No shRNA, replicate 2) was 1.4504. The “Knockdown effect on cell viability” value ([2]; No shRNA, replicate 3) was 1.525, the “Knockdown effect on cell viability” value ([2]; VPS4A shRNA, replicate 1) was 1.3172 and the “Knockdown effect on cell viability” value ([2]; VPS4A shRNA, replicate 2) was 1.331. The “Knockdown effect on cell viability” value ([2]; VPS4A shRNA, replicate 3) was 1.421, the “Knockdown effect on cell viability” value ([2]; VPS4A/B shRNA, replicate 1) was 1.464 and the “Knockdown effect on cell viability” value ([2]; VPS4A/B shRNA, replicate 2) was 1.542. The “Knockdown effect on cell viability” value ([2]; VPS4A/B shRNA, replicate 3) was 1.564, the “Knockdown effect on cell viability” value ([2]; VPS4B shRNA, replicate 1) was 1.302 and the “Knockdown effect on cell viability” value ([2]; VPS4B shRNA, replicate 2) was 1.395. The “Knockdown effect on cell viability” value ([2]; VPS4B shRNA, replicate 3) was 1.343, the “Cytoprotective effect under knockdown” value ([2]; shRNA CHMP2B or VPS4A and/or VPS4B) was “prevented by CHMP2B knockdown, but not by knockdown of VPS4A and/or VPS4B” and the “Effect on a-syn levels, iPSC neurons” value [3] was “returned levels of a-syn, including oligomeric a-syn, as well as LAMP1 levels to those of isogenic controls”.
